From patent US5874461A, “Use of Nebivolol as an anti-atherogenic” (priority 1995, dated 1999)
Where two headings read alike, the source gives them in different places.

Tests used:
[1] = test system: primary embryonic hippocampal cultures; experiment: VitE complementation (vitE depletion) test on primary neuronal cultures; type: cell-based, rats; settings: for rescue of survival of vitE depleted cultures: 10^-7 M and 10^-6 M
Experimental: Primary embryonic hippocampal cultures were prepared essentially as described previously (Pauwels et al., Van Aschouw, H. P., Peeters, L., Moeremans, M., Leysen, J. E. (1992) Chronic treatment with sabeluzole protects cultured rat brain neurons from the neurotoxic effects of excitatory amino acids. Synapse, 12:271-280). Hippocampal formations of rats at embryonic day 17 were dissected and dissociated in 0.05% trypsin, 0.1 mg/ml DNase I in DMEM (Dulbecco Modified Eagle Medium). Heat-inactivated horse serum (HS) was added to a concentration of 4%, and the cells were centrifuged, washed with DMEM, and resuspended in DMEM/Ham's F12 (3:1) containing 10% HS. The cells were plated at a density of 4×10^5 cells/cm^2 in poly L-lysine (0.001%) precoated multiwell-24 plates. On day 1 in culture, the medium was changed to chemically defined CDM-R12 medium (DMEM-HEPES/Ham's F12 (3:1) containing 0.26% bovine serum albumin, 30 nM sodium selenite, 3 nM 3,3',5 triiodo-L-thyronine, 0.35 μM retinol, 0.3 μM retinol acetate, 2.3 μM DL-a-tocopherol, 2.1 μM DL-a-tocopherol acetate, 3.6 μM linolenic acid, 3.6 μM linoleic acid, 0.125% human transferrin, […], 57.7 nM corticosterone, 49 U/I insulin, 0.4 μM biotin, 10 μM L-carnitine, 83 μM D(+)-galactose, 3.3 μM glutathione, 10 μM ethanolamine, 0.1 mM putrescine; Romijn, H. J., van Huizen, F., Wolters, P. S. (1984) Towards an improved serum-free, chemically defined medium for long-term culturing of cerebral cortex tissue. Neurosci. Behav. Rev., 8:301-334). Acute and prolonged pretreatment of the, cultures was essentially as described previously (Pauwels et al., 1992). Drugs were dissolved, and diluted in 10% or 1% hydroxypropyl-β-cyclodextrin such that the final concentrations of the solvent in the acute and chronic exposures were 0.1% and 0.01% respectively. Compound A as used in the following examples is [(RRSR)+(RRRS)+(SSSR) +(SSRS)]-α-[[[2-(chroman-2-yl)-2-hydroxy-ethyl]amino]methyl]-6-hydroxy-2-chromanmethanol ethanedioate (1:1).
For vitE depletion experiments, primary cultures were set up as above, but on day 1 in culture, the medium was changed to chemically defined CDM-R12 medium with (control) or without DL-a-tocopherol (vitE) and DL-a-tocopherol acetate, in the presence or absence of test coumpound. […] Addition of compounds could rescue the cultures. […] The EC50 for complementation of vitE refers to the concentration of the compound required to restore culture survival to 50% of the survival seen for the culture grown in vitE supplemented medium. Seven concentrations of each compound were tested in triplicate, the number of independent experiments is indicated in the table, and the mean EC50 -value±SD was calculated.
Primary neuronal cultures depend on the presence of the antioxidant vitE in the culture medium for survival in vitro. When vitE depleted medium is used to grow the cultures, survival drops to ±20% of control. Compounds with antioxidative properties are able to complement the lack of vitE, and as such can when added to the culture medium, rescue vitE devoid cultures. Several nebivolol derivatives were tested at 10^-7 M and 10^-6 M in the vitE depletion test on primary neuronal cultures.
When nebivolol derivatives were administered during culture, the cultures could be rescued to a certain extent. 100% vitE complementation refers to the survival of a cell culture which is indifferent from a vitE containing cell culture.
When hydroxynebivolol was administered during culture, the cultures could be rescued. The EC50 refers to the concentration at which the culture is rescued for 50%, as measured by cytoplasmic LDH activity.

C6 glioma cells = experiment: Protection of C6 glioma cells from glutathione depletion-mediated oxidative stress (toxicity, LDH assay); type: cell-based; settings: 10 mM glutamate; for IC50: 48 hr, read-out: Protection IC50 (mean ± SD, n = 3)
From the text: Competitive inhibition by glutamate of cystine uptake in certain cells leads to glutathione depletion and oxidative stress. This oxidative stress model has been described for glial C6 glioma cells (Kato et al., 1992. A mechanism for glutamate toxicity in the C6 glioma cells involving inhibition of cystine uptake leading to glutathione depletion. Neurosci. 48:903-914) and for the neuronal cell line N18RE105 (Murphy et al., 1989. Glutamate toxicity in a neuronal cell line involves inhibition of cystine transport leading to oxidative stress. Neuron 2:1547-1558).
Cell culture: The C6 glioma cell line (American Type Culture Collection, CCL 107) was cultivated in DMEM supplemented with 2 or 4 mM glutamine, 1 mM pyruvate and 5 or 10% heat-inactivated foetal calf serum. Cultures were maintained at 37° C. in an air/5~10% CO2, water saturated atmosphere.
Glutathione depletion and evaluation of drugs as antioxidants: Experiments were carried out with cultures plated at 30,000~50,000 cells/cm^2 in 24-well culture plates (for toxicity and lipid peroxide measurements) or at 136,000 cells/cm^2 in 96-well culture plates (for GSH determination). After 8-24 hr, the cultures were switched to culture medium in the absence or presence of the cystine uptake inhibitor glutamate at a final concentration of 10 mM. In order to test drugs for inhibition of oxidative stress, the drug was added together with glutamate (final concentration of solvent was 0.01% hydroxypropyl-β-cylodextrin, 0.1% DMSO). Intracellular glutathione levels were measured after 6~8 hr, lipid peroxides were measured after 14~20 hr, and toxicity and protection were analysed after 48 hr using an LDH assay according to the method of Bergmeyer and Bernt (UV-assay with pyruvate and NADH. In: Methods of Enzymatic Analysis. 1974. H. U. Bergmeyer, ed. Acad. Press, New York, 2nd Ed., pp 574-579).

Structure (SMILES)	% vitE complementation ([1]; 10^-6 M) [%]	% vitE complementation ([1]; 10^-7 M) [%]	rescue of survival of vitE depleted cultures [1]	protection from cell death (C6 glioma cells)	IC50 (C6 glioma cells) [nM]	IC50 (C6 glioma cells; C6 glioma, 48 h) [nM]	rescue of primary neuronal cultures grown in VitE depleted medium ([1]; 10^-6 M)	EC50 ([1]; Rattus norvegicus, 5 dose responses, cytoplasmic LDH activity, read-out: mean EC50 ± SD for complementation of vitE) [nM]
O[C@H](CNC[C@@H](O)[C@H]1CCc2cc(F)ccc2O1)[C@@H]1CCc2cc(F)ccc2O1 (relative stereo) [nebivolol, (RSSS) and (SRRR) α,α'-iminobis(methylene)bis[6-fluoro-2-chroman-methanol]]	29 ± 28	29 ± 29	able to rescue survival of vitE depleted cultures to a certain extent	protected these cultures from cell death with high potency	9.1 ± 0.1	~9	–	–
Oc1ccc2c(c1)CCC(C(O)CNCC(O)C1CCc3ccccc3O1)O2 (stereo not drawn) [Compound A, [(RRSR)+(RRRS)+(SSSR) +(SSRS)]-α-[[[2-(chroman-2-yl)-2-hydroxy-ethyl]amino]methyl]-6-hydroxy-2-chromanmethanol ethanedioate (1:1)]	85 ± 21	27 ± 28	able to rescue survival of vitE depleted cultures to a certain extent	protected these cultures from cell death with high potency	8.6 ± 0.2	~9	complete rescue	126 ± 88
